Measured values: PMC9230623, “Design, Synthesis, In Vitro Biological Activity Evaluation and Stabilized Nanostructured Lipid Carrier Formulation of Newly Synthesized Schiff Bases-Based TMP Moieties” (Pharmaceuticals, 2022)
Where two headings read alike, the source gives them in different places.

Legend:
tubulin [1] = system: tubulin; parameters: method as in PMID 32325332; conditions: at its IC50 dose level ref 22; cited from earlier work
MDA-MB-231 cells [2] = assay: Cell cycle analysis (FACS, DNA flow cytometry); format: cell-based, human
Description: For the purpose of studying the influence of these hydrazides on the cell cycle progression of MDA-MB-231 human malignant cell lines. A FACS analysis was used to determine the DNA proportion of cell nuclei.
(§1) See Supplementary Materials—Appendix SB.

β-tubulin = assay: Tubulin polymerization inhibitory activity, ELISA assay for β-tubulin; format: cell-based, human; conditions: at IC50 (1.27 μM), compared with no treatment control
Description: In addition, compound 4h was subjected to in vitro tubulin polymerization inhibitory activity assay using ELISA assay for β-tubulin.
(§2) Compound 4h was evaluated for their Tubulin inhibitory activity according to manufacturer’s instructions.

[3] = system: mitochondrial membrane potential of MDA-MB-231 cells; assay: Mitochondrial membrane potential by flow cytometry; format: cell-based, human
Description: Most of the known anticancer molecules induce apoptotic cascade via activation of the intrinsic pathway via release of cytochrome-c after depolarization of mitochondrial membrane. The potential status of the mitochondrial membrane is determined by the electrochemical gradient (Δψ).
as §1

[4] = system: MDA-MB-231 breast cancer cell line; assay: Cytotoxic assay against MDA-MB-231 breast cancer cell line; format: cell-based; conditions: Homo sapiens
Description: The newly prepared Schiff bases 2–5g were screened for their in vitro cytotoxic activity against the MDA-MB-231 breast cancer cell line taking CA-4 as a reference drug. […] In addition, further structure extension to give N-aryl hydrazinyl molecules 4a–5g produced compounds with considerable cytotoxic activity, which may give an indication that the aryl ring is important for cytotoxic activity. […]
Cytotoxic activity of the prepared schiff bases against MDA-MB-231 breast cell Line was determined according previously reported methods. (See Supplementary Materials—Appendix SB).

tubulin [5] = assay: Tubulin polymerization inhibition by immunofluorescence analysis (confocal microscope); format: cell-based, human; conditions: at its IC50 concentration, MDA-MB-231, compared with untreated cells
Description: Several investigations have shown that TMP-containing compounds such as Col and CA-4 interact with tubulin at the colchicine binding site, inhibiting microtubule assembly. The effects of representative Schiff bases on the inhibition of tubulin assembly were evaluated. […] Tubulin polymerization inhibitory activity against the MDA-MB-231 cell line was investigated by immunofluorescence analysis using a confocal microscope.
as §2

MDA-MB-231 cells [6] = assay: Annexin V FITC/PI staining apoptosis assay; format: cell-based, human
Description: A double staining examination of annexin V FITC/propidium iodide (PI) was used to evaluate compound 4h’s influence on apoptosis and estimate the percentage of the total, early, and late apoptosis in MDA-MB-231 cells. […] Furthermore, the proportion of early and late apoptotic cells rose by 23.12- and 63.67-fold, respectively, as compared to the untreated control cells.
as §1

[7] = system: normal breast cell line MCF-10A; assay: Cytotoxic assay against normal breast cell line MCF-10A; format: cell-based; conditions: Homo sapiens, read-out: IC50 Value (μM) MCF-10A
[8] = system: four human cancer cell lines; parameters: method as in PMID 27149641; conditions: four human cancer cell lines ref 21; read-out: IC50 antiproliferative activity; cited from earlier work
[9] = system: MCF-7 breast cancer cell line; conditions: MCF-7 ref 26; cited from earlier work
[10] = MDA-MB-231, mean of three independent replicates ± SE, read-out: IC50 Value (μM) MDA-MB-231
[11] = compared to untreated control cells

## COc1cc(C(=O)NNC(=O)c2ccc(NC(=O)CCl)cc2)cc(OC)c1OC [VI]
Tubulin [1]
  in vitro tubulin polymerization inhibition activity: 83.1%

## COc1cc(/C=C(\NC(=O)c2cc(OC)c(OC)c(OC)c2)C(=O)N/N=C/c2cc(Br)c(O)c(Br)c2)cc(OC)c1OC [Compound 4h, N-((Z)-3-((E)-2-(3,5-Dibromo-4-hydroxybenzylidene)hydrazinyl)-3-oxo-1-(3,4,5-trimethoxyphenyl)prop-1-en-2-yl)-3,4,5-trimethoxybenzamide]
MDA-MB-231 cells [2]; IC50 concentration, 24 h
  %Pre-G1: 31.27%
MDA-MB-231 cells [2]; IC50 concentration, 24 h, untreated control 8.22%
  %DIP G2/M: 38.65%
MDA-MB-231 cells [2]; versus control MDA-MB-231 cells
  cell cycle arrest at G2/M phase relative to control cells: fivefold
MDA-MB-231 cells [2]; versus negative control cells
  increase in percentage of pre-G1 phase relative to negative control: ~19 fold
β-tubulin
  percent inhibition of tubulin polymerization: 78.14%
[3]; IC50 concentration, 24 h, in comparison with untreated cells
  reduction in the level of MMPψ: 65.23%
[3]; compared to negative control cells
  decrease in the level of MMP: 3 fold
[4]; [10]
  IC50: 1.27 ± 0.18 µM
Tubulin [5]
  tubulin polymerization inhibition activity (immunofluorescence): good tubulin polymerization inhibition activity
MDA-MB-231 cells [6]; 24 h, no treatment control 1.63%
  overall apoptosis: 31.27%
MDA-MB-231 cells [6]; [11]
  rise of early apoptotic cells: 23.12 fold
  rise of late apoptotic cells: 63.67 fold
[7]; mean of three independent replicates ± SE
  IC50: 30.8 ± 2.32 µM

## COc1ccc(/C=C\c2cc(OC)c(OC)c(OC)c2)cc1O [CA-4, combretastatin A-4, reference compound]
[4]; MDA-MB-231, read-out: IC50 Value (μM) MDA-MB-231
  IC50: 0.54 ± 0.04 µM
[7]
  IC50: 8.86 ± 0.67 µM

## COc1ccc2c(c1)NC(/C=C(\C)C(=O)c1cc(OC)c(OC)c(OC)c1)C2 (centres unmarked) [V]
[8]
  IC50: 3 to 9 nM

## COc1cc(C(=O)N/N=C/c2cc3ccccc3[nH]2)cc(OC)c1OC [VII]
[9]
  IC50: 870 nM

## COc1cc(/C=C(\NC(=O)c2cc(OC)c(OC)c(OC)c2)C(=O)N/N=C(\C)c2cc(OC)c(OC)c(OC)c2)cc(OC)c1OC [Compound 5g, 3,4,5-Trimethoxy-N-((Z)-3-oxo-1-(3,4,5-trimethoxyphenyl)-3-((E)-2-(1-(3,4,5-trimethoxyphenyl)ethylidene)hydrazinyl)prop-1-en-2-yl)benzamide]
[4]; [10]
  IC50: 3.39 ± 0.26 µM
other
  melting point: 211 to 213 °C
